The results in this text go back to patent US20220064105A1, “CRYSTALLINE EDG-2 RECEPTOR ANTAGONIST AND METHODS OF MAKING” (Sanofi, priority 2020, published 2022).

Type in all cases: physicochemical
A short description of series [1]: Slurry stability study at room temperature (25° C.), 4 weeks, resulting form by FTIR. The note with it: 25° C., 4 weeks, FTIR. The protocol:
Slurry stability Maturation studies were initially conducted for the purpose of identifying the most […] stable form at room temperature (25° C.).
In this set of experiments, both the individual forms and mixtures of forms were slurried in several solvents for 4 weeks, then filtered and analyzed to determine the resulting form. The first set of experiments included pure Form 1, Form 2, Form 3, and mixtures of these forms in equal amounts. The solvents included methanol, ethyl acetate, MEK, and methyl THF in order to investigate a range of solvent polarity. Additional experiments were conducted with a mixture of Form 1 and Form 4 in MEK and methanol.
Analysis was performed by FTIR due to ease of analysis for small quantities. It is interesting to note that the acid carbonyl is shifted to a different location for each polymorph. The results for the first set of experiments are listed below, comparing the starting form with the final form.

Series [2] in a line: Slurry conversion studies at 40-70° C. with Forms 1 and 2. Here is the method: Slurry conversation studies were also conducted at 40-70° C. with Forms 1 and 2 to determine a transition temperature between the forms. A mixture of Form 1 and Form 2 at a (1:1 ratio) was slurried at 40° C., 50° C., 60° C., and 70° C. in two different solvents at each temperature and then analyzed to determine the direction of transformation. At 40° C. and 50° C., Methanol and MEK were used. At 60° C. and 70° C. MEK and 1-Pentanol were used.

Series [3] is described as follows: Physical stability of solid state forms at 80° C./75% RH, by FTIR. The conditions noted are these: 1 week (7 days), open glass vials. Here is the method:
The physical stability of Forms 1, 2, and 3 was investigated at 80° C./75% RH in order to determine if interconversion was observed. The samples were examined by FTIR after stressing 1 week in open glass vials.

A short description of series [4]: Solubility of polymorphs at pH 7.4 in phosphate buffer at 25° C. The note with it: pH 7.4 phosphate buffer; for Concentration (equilibrium solubility): 24 hr. The protocol:
The solubility of the different polymorphs was determined at pH 7.4 in phosphate buffer at 25° C. Samples were analyzed as a function of time for each form to determine the equilibrium values. The residual solids from each sample were analyzed to verify that the form was unchanged during the experiment. The concentration (mg/mL) versus time data is listed below for each form: […]

Molecules are shown by their SMILES. Marks after values point to notes of the source that are not given here.

Turning to `COc1ccc(C(=O)NC2(C(=O)O)Cc3ccccc3C2)cc1OCCc1cccc(C)c1` [Form 2, 2-(4-methoxy-3-(3-methylphenethoxy)benzamido)-2,3-dihydro-1H-indene-2-carboxylic acid], the “Final form after slurry” value in series [1] (slurried in MEK) was “converts to crystalline Form 1”; in series [1] (slurried in ethyl acetate), “Form 2”; in series [1] (slurried in methanol) it was “Form 2”; in series [1] (slurried in methyl THF), “Form 2”. Also, the “Resulting form after slurry” value in series [2] (slurried in MEK at 40° C.), in series [2] (slurried in MEK at 50° C.), in series [2] (slurried in methanol at 40° C.) and in series [2] (slurried in methanol at 50° C.) was “converts to crystalline Form 1” in each case. In series [3], the “Change in FTIR spectrum after storage” value is reported as “unchanged FTIR”. Moreover, the “24 hour solubility greater than Form 1” value in series [4] (24 hours) is listed as “more than 30%”. The “Concentration (solubility)” value is reported as 0.034 mg/mL in series [4] (1 hr), 0.039 mg/mL in series [4] (2 hr) and 0.043 mg/mL in series [4] (3 hr). Also, the “Concentration (equilibrium solubility)” value in series [4] is reported as 0.057* mg/mL.
Regarding `COc1ccc(C(=O)NC2(C(=O)O)Cc3ccccc3C2)cc1OCCc1cccc(C)c1` [Form 3, 2-(4-methoxy-3-(3-methylphenethoxy)benzamido)-2,3-dihydro-1H-indene-2-carboxylic acid], the “Final form after slurry” value in series [1] (slurried in MEK), in series [1] (slurried in ethyl acetate), in series [1] (slurried in methanol) and in series [1] (slurried in methyl THF) was “converts to crystalline Form 1” each time. Further, the “Change in FTIR spectrum after storage” value in series [3] was “unchanged FTIR”. In addition, the “Equilibrium solubility relative to Form 1” value in series [4] (24 hours) was “more than double”. The “Concentration (solubility)” value in series [4] (1 hr) turned out to be 0.083 mg/mL; in series [4] (2 hr), 0.093 mg/mL; in series [4] (3 hr), 0.095 mg/mL. The “Concentration (equilibrium solubility)” value in series [4] was 0.097 mg/mL.
For `COc1ccc(C(=O)NC2(C(=O)O)Cc3ccccc3C2)cc1OCCc1cccc(C)c1` [Form 4, 2-(4-methoxy-3-(3-methylphenethoxy)benzamido)-2,3-dihydro-1H-indene-2-carboxylic acid], the “Equilibrium solubility relative to Form 1” value in series [4] (24 hours) was “more than double”. For the same molecule, the “Concentration (solubility)” value was found to be 0.079 mg/mL in series [4] (1 hr), 0.089 mg/mL in series [4] (2 hr) and 0.105 mg/mL in series [4] (3 hr). Also, the “Concentration (equilibrium solubility)” value in series [4] is 0.102 mg/mL.
`COc1ccc(C(=O)NC2(C(=O)O)Cc3ccccc3C2)cc1OCCc1cccc(C)c1` [Forms 1, 2, 3]: the “Final form after slurry” value in series [1] (slurried in MEK), in series [1] (slurried in methanol) and in series [1] (slurried in methyl THF) was “Form 1” each time.
For the molecule `COc1ccc(C(=O)NC2(C(=O)O)Cc3ccccc3C2)cc1OCCc1cccc(C)c1` [mixture of Form 1 and Form 2], the “Resulting form after slurry” value is given as “Form 2” in series [2] (slurried in 1-pentanol at 60° C.); “Form 2” in series [2] (slurried in 1-pentanol at 70° C.); “Form 1” in series [2] (slurried in MEK at 40° C.); “Form 1” in series [2] (slurried in MEK at 50° C.); “Form 2” in series [2] (slurried in MEK at 60° C.); “Form 2” in series [2] (slurried in MEK at 70° C.). In addition, the “Resulting form after slurry” value in series [2] (slurried in methanol at 40° C.) and in series [2] (slurried in methanol at 50° C.) was “Form 1” throughout.
As for `COc1ccc(C(=O)NC2(C(=O)O)Cc3ccccc3C2)cc1OCCc1cccc(C)c1` [mixtures of Form 4 and Form 1], the “Final form after slurry” value in series [1] (slurried in MEK) and in series [1] (slurried in methanol) was “convert to Form 1” throughout.
